In ChEMBL document CHEMBL3885861, “Open TG-GATES”:

Organism: Rattus norvegicus
Test: Open TG-GATES - Regimen: Single
Type: toxicity, organism-based, Sprague-Dawley
Set-up: regimen Single, gender Male, age 6 weeks
Details: in vivo, po, 3 mg/kg, route gavage, dose level Middle; for APTT / Bas / Eos / Fbg / Hb / Ht / Lym / MCH / MCHC / MCV / Mono / PT / Plat / RBC / Ret / WBC: tissue Blood; for KIDNEY_L / KIDNEY_R / KIDNEY_TOTAL: tissue Kidney; for LIVER: tissue Liver

## C#C[C@]1(O)CC[C@H]2[C@@H]3CCc4cc(O)ccc4[C@H]3CC[C@@]21C [ETHINYL ESTRADIOL]
3 h
  TERMINAL_BW: 198.2 g
  APTT: 15.8 s
  Bas: 0%
  Eos: 1%
  Fbg: 257.8 mg/dL
  Hb: 12.9 g/dL
  Ht: 39.4%
  Lym: 75.8%
  MCH: 21.4 pg
  MCHC: 32.9%
  MCV: 65 fL
  Mono: 3.6%
  PT: 12.2 s
  Plat: 110.2 x10_4/uL
  RBC: 607 x10_4/ul
  Ret: 10.6%
  WBC: 86.9 x10_2/uL
  KIDNEY_L: 0.8 g
  KIDNEY_R: 0.8 g
  KIDNEY_TOTAL: 1.7 g
  LIVER: 8.5 g
3 h, tissue Plasma
  ALP: 1631.6 IU/L
  ALT: 47.8 IU/L
  AST: 80.2 IU/L
  BUN: 10.2 mg/dL
  CRE: 0.2 mg/dL
  Cl: 106.8 meq/L
  GLC: 183.4 mg/dL
  IP: 9.2 mg/dL
  K: 3.8 meq/L
  LDH: 49.2 IU/L
  PL: 142.6 mg/dL
  RALB: 2.5 g/dL
  TBIL: 0.038 mg/dL
  TC: 75.4 mg/dL
  TP: 5.4 g/dL
  gamma-GTP: 1.2 IU/L
6 h
  TERMINAL_BW: 195.3 g
  APTT: 14.7 s
  Bas: 0.2%
  Eos: 0.8%
  Fbg: 292.8 mg/dL
  Hb: 13 g/dL
  Ht: 38.9%
  Lym: 69.4%
  MCH: 21.9 pg
  MCHC: 33.4%
  MCV: 65.5 fL
  PT: 12.2 s
  Plat: 115.2 x10_4/uL
  RBC: 594.2 x10_4/ul
  Ret: 9.8%
  WBC: 98.2 x10_2/uL
  KIDNEY_L: 0.9 g
  KIDNEY_R: 0.9 g
  KIDNEY_TOTAL: 1.7 g
  LIVER: 8.1 g
6 h, tissue Plasma
  ALP: 1993.6 IU/L
  ALT: 54.6 IU/L
  AST: 106.2 IU/L
  BUN: 6.6 mg/dL
  CRE: 0.2 mg/dL
  Ca: 10.6 mg/dL
  Cl: 110 meq/L
  DBIL: 0.012 mg/dL
  IP: 10.4 mg/dL
  LDH: 44.6 IU/L
  Na: 144.4 meq/L
  PL: 106.4 mg/dL
  RALB: 2.5 g/dL
  TBIL: 0.038 mg/dL
  TC: 51.8 mg/dL
  TP: 5.4 g/dL
  gamma-GTP: 1.2 IU/L
9 h
  TERMINAL_BW: 196.1 g
  APTT: 15.7 s
  Bas: 0%
  Eos: 1%
  Fbg: 261.6 mg/dL
  Hb: 12.8 g/dL
  Ht: 37.6%
  Lym: 72%
  MCH: 22.3 pg
  MCHC: 33.9%
  MCV: 65.8 fL
  Mono: 3%
  PT: 12.7 s
  Plat: 117.1 x10_4/uL
  RBC: 572.4 x10_4/ul
  Ret: 10.2%
  WBC: 81.1 x10_2/uL
  KIDNEY_L: 0.8 g
  KIDNEY_R: 0.8 g
  KIDNEY_TOTAL: 1.7 g
  LIVER: 7.6 g
9 h, tissue Plasma
  ALP: 1530.6 IU/L
  ALT: 36.4 IU/L
  AST: 72 IU/L
  BUN: 9 mg/dL
  CRE: 0.2 mg/dL
  Ca: 10.4 mg/dL
  Cl: 109.2 meq/L
  DBIL: 0.012 mg/dL
  IP: 10.4 mg/dL
  K: 3.7 meq/L
  LDH: 39.6 IU/L
  Na: 145.4 meq/L
  PL: 95.4 mg/dL
  RALB: 2.6 g/dL
  TBIL: 0.048 mg/dL
  TC: 45.4 mg/dL
  TP: 5.3 g/dL
  gamma-GTP: 1 IU/L
24 h
  TERMINAL_BW: 200 g
  APTT: 18.1 s
  Bas: 0%
  Eos: 1%
  Fbg: 220.8 mg/dL
  Ht: 39%
  Lym: 77.8%
  MCH: 22 pg
  MCHC: 34%
  MCV: 64.6 fL
  Mono: 4%
  PT: 13.4 s
  Plat: 110.4 x10_4/uL
  RBC: 604.4 x10_4/ul
  Ret: 8.1%
  WBC: 92.7 x10_2/uL
  KIDNEY_L: 0.9 g
  KIDNEY_R: 0.9 g
  KIDNEY_TOTAL: 1.8 g
  LIVER: 9.6 g
24 h, tissue Plasma
  ALP: 2004.2 IU/L
  ALT: 43 IU/L
  AST: 70.6 IU/L
  BUN: 10.8 mg/dL
  CRE: 0.2 mg/dL
  Ca: 10.8 mg/dL
  Cl: 106.4 meq/L
  DBIL: 0.024 mg/dL
  IP: 7 mg/dL
  K: 4.3 meq/L
  LDH: 62.8 IU/L
  PL: 106.4 mg/dL
  RALB: 2.5 g/dL
  TBIL: 0.042 mg/dL
  TC: 39 mg/dL
  TP: 5.3 g/dL
